Literature values, collected in patent US11957650B2, “Formulation and method for the prevention and/or treatment of hangover symptoms” (PHOENIX PHARMACEUTICALS AUSTRALIA PTY LTD, priority 2016, dated 2024).

Test system: acetaldehyde poisoning in rats
Settings: for Effective dose in rats: footnotes * and † not given

## N[C@@H](CS)C(=O)O [L-cysteine]
L-cysteine alone [13, 14]
  mortality due to acetaldehyde poisoning: markedly reduce the mortality
  Effective dose in rats: 34 mg

## Cc1ncc(C[n+]2csc(CCO)c2C)c(N)n1 [thiamine, Thiamine]
Addition of thiamine to L-cysteine [13, 14]
  mortality in rats poisoned with acetaldehyde, thiamine added to L-cysteine: enhanced the ability of L-cysteine to reduce mortality

## O=C1O[C@H]([C@@H](O)CO)C(O)=C1O [Ascorbic acid]
  Effective dose in rats: 50 mg

## Cc1ncc(C[n+]2csc(CCO)c2C)c(N)n1.Cl.[Cl-] [Thiamine•HCl]
  Effective dose in rats: 42 mg
